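Method: 48-hour compound exposure of cells in 96-well plates, five concentrations, linear interpolation of endpoints. TGI: concentration producing complete growth inhibition.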
Key:
Test in all cases: NCI anticancer screen, dose series, 48 h
[1] = tested on: HL-60(TB) leukemia
[2] = tested on: HT29 colon
[3] = tested on: U251 CNS
[4] = tested on: PC-3 prostate
[5] = tested on: SF-539 CNS
[6] = tested on: UO-31 renal
[7] = tested on: UACC-257 melanoma
[8] = tested on: CCRF-CEM leukemia
[9] = tested on: NCI-H522 lung
[10] = tested on: OVCAR-8 ovarian

Structure (SMILES)	TGI [1]	TGI [2]	TGI [3]	TGI [4]	TGI [5]	TGI [6]	TGI [7]	TGI [8]	TGI [9]	TGI [10]
O=C(/C=C/c1ccc(O)cc1)c1ccc2c(c1)OCO2	41.3 µM	33.7 µM	36.2 µM	62.2 µM	26.8 µM	38.8 µM	33.6 µM	5.69 µM	34.2 µM	29.6 µM
COC(=O)/C(=C\Nc1cccc(C)n1)S(=O)(=O)c1ccc(C)cc1	53.3 µM	> 100 µM	> 100 µM	> 100 µM	> 100 µM	> 100 µM	> 100 µM	> 100 µM	> 100 µM	> 100 µM
CCCCC(C#N)(OP1(=O)OC(c2ccccc2)C(C)N1C)c1ccccc1 (stereo not drawn)	36 µM	33.8 µM	31.4 µM	32.7 µM	31.2 µM	31.4 µM	33.7 µM	40.3 µM	33.7 µM	38.8 µM
O=C(O)c1cc2ccccc2c(N=Nc2ccc(S(=O)(=O)Nc3nccs3)cc2)c1O	> 100 µM	> 100 µM	> 100 µM	> 100 µM	> 100 µM	> 100 µM	> 100 µM	> 100 µM	> 100 µM	> 100 µM
COC(=O)C(Cc1c(C2Nc3ccccc3C2CC(NC(=O)CNC(C)=O)C(=O)OC)[nH]c2ccccc12)NC(=O)CNC(C)=O (stereo not drawn)	> 100 µM	> 100 µM	> 100 µM	> 100 µM	> 100 µM	> 100 µM	> 100 µM	> 100 µM	> 100 µM	> 100 µM
C[Si](C)(OCCS(=O)(=O)O)C1(Cc2cccc3ccccc23)S(=O)(=O)OCCOS1(=O)=O	51.8 µM		63.7 µM	45.4 µM	39.5 µM	32.4 µM	80.1 µM	45.9 µM	30.5 µM	52.4 µM
O=C1CCC2(CC1CC(Sc1ccccc1)Sc1ccccc1)OCCO2 (stereo not drawn)	46 µM	> 100 µM	> 100 µM	> 100 µM	> 100 µM	> 100 µM	> 100 µM	> 100 µM	85.4 µM	> 100 µM
COC(=O)NCCc1[nH]nc2c1C(=O)C=C(N1CCOCC1)C2=O	> 100 µM	> 100 µM	> 100 µM	> 100 µM	> 100 µM	> 100 µM	> 100 µM	> 100 µM	> 100 µM	> 100 µM
O=C1NC(SSC2=NNC3(C(=O)N2)c2ccccc2-c2ccccc23)=NNC12c1ccccc1-c1ccccc12	> 10 µM	> 10 µM	> 10 µM	> 10 µM	> 10 µM	> 10 µM	> 10 µM	> 10 µM	> 10 µM	> 10 µM
Cn1c(=O)c(C(=O)Nc2nc(C34CC5CC(CC(C5)C3)C4)cs2)c(O)c2ccccc21	> 100 µM	> 100 µM	> 100 µM	> 100 µM	> 100 µM	> 100 µM	> 100 µM	> 100 µM	> 100 µM	> 100 µM
CCCSc1ccc2[nH]c(N3C(=O)/C(=C/c4ccco4)N=C3c3ccccc3)cc2c1	> 50 µM	> 50 µM		> 50 µM	25 µM	> 50 µM	> 50 µM	> 50 µM	37.8 µM	> 50 µM
O=S(=O)(O)c1cc(O)c2c(N=Cc3ccccc3O)cc(S(=O)(=O)O)cc2c1	> 100 µM	> 100 µM	> 100 µM	> 100 µM	> 100 µM	> 100 µM	> 100 µM	> 100 µM	> 100 µM	> 100 µM
CCN(CC)CC1CCCCN1CC(=O)N1c2ccccc2NC(=O)CC1C (stereo not drawn)	> 100 µM	> 100 µM	> 100 µM	> 100 µM	> 100 µM	> 100 µM	> 100 µM	> 100 µM	> 100 µM	> 100 µM
COC(=O)c1c(O)ccc2c1c1c(n2Cc2ccccc2Cl)C(=O)c2ccccc2C1=O	49.6 µM	3.58 µM	30.2 µM	26.3 µM	30 µM	24.8 µM	32.8 µM	43.6 µM	25.5 µM	51.5 µM
CC(=O)OCCOCn1c2c(c(=S)[nH]c1=O)CCC2	> 100 µM	> 100 µM	> 100 µM	> 100 µM	> 100 µM	> 100 µM	> 100 µM	> 100 µM	> 100 µM	> 100 µM
CCC(CON(C)c1ccccc1)(SC)SC	> 100 µM	> 100 µM	> 100 µM	> 100 µM	> 100 µM	> 100 µM	> 100 µM	> 100 µM	> 100 µM	> 100 µM
CN(CCn1cnc2c1c(=O)n(C)c(=O)n2C)C1CCCCC1	> 100 µM	> 100 µM	> 100 µM	> 100 µM	> 100 µM	> 100 µM	> 100 µM	> 100 µM	> 100 µM	> 100 µM
CCSc1sc(=Nc2ccc(N=c3sc(C)c(SC)s3)cc2)sc1-c1ccc(C)cc1	> 100 µM	> 100 µM	> 100 µM	> 100 µM	> 100 µM	> 100 µM	> 100 µM	> 100 µM	> 100 µM	> 100 µM

From PubChem BioAssay (NCI)
